Tests used:
Rattus norvegicus [1] = experiment: Compound was tested for oral salidiuretic activity (control/drug treatment value) in rats expressed as urinary output. at a dose of 128 mg/kg; 9.05/12.83; assay type: functional, Urine
Rattus norvegicus [2] = experiment: Compound was tested for oral salidiuretic activity (control/drug treatment value) in rats expressed as urinary output. at a dose of 16 mg/kg; 9.05/9.87; assay type: functional, Urine
Rattus norvegicus [3] = experiment: Compound was tested for oral salidiuretic activity (control/drug treatment value) in rats expressed in Na+, mequiv/6 hr at a dose of 128 mg/kg; 0.216/0.263; assay type: functional, Urine
Rattus norvegicus [4] = experiment: Compound was tested for oral salidiuretic activity (control/drug treatment value) in rats expressed in Na+, mequiv/6 hr at a dose of 32 mg/kg; 0.216/0.207; assay type: functional, Urine
Rattus norvegicus [5] = experiment: Compound was tested for oral salidiuretic activity (control/drug treatment value) in rats expressed in Na+, mequiv/6 hr at a dose of 64 mg/kg; 0.216/0.097; assay type: functional, Urine
Rattus norvegicus [6] = experiment: Compound was tested for oral salidiuretic activity (control/drug treatment value) in rats expressed in Na+, mequiv/6 hr at a dose of 16 mg/kg; 0.216/0.178; assay type: functional, Urine
Rattus norvegicus [7] = experiment: Compound was tested for oral salidiuretic activity (control/drug treatment value) in rats expressed as urinary output. at a dose of 128 mg/kg; 7.70/12.75; assay type: functional, Urine
[8] = target: Beta-1 adrenergic receptor (Homo sapiens) (UniProt P08588); conditions: Canis lupus familiaris
Description: Compound was tested for beta-1 adrenergic receptor blocking activity in dogs

[9] = target: Beta-2 adrenergic receptor (Canis lupus familiaris) (UniProt P54833)
Description: The compound was tested for beta-2 adrenergic receptor blocking activity in dogs

Rattus norvegicus [10] = experiment: Compound was tested for oral salidiuretic activity (control/drug treatment value) in rats expressed in Na+, mequiv/6 hr at a dose of 128 mg/kg; 0.114/0.707
Rattus norvegicus [11] = experiment: Compound was tested for oral salidiuretic activity (control/drug treatment value) in rats expressed as urinary output. at a dose of 16 mg/kg; 7.67/8.78; assay type: functional, Urine
Rattus norvegicus [12] = experiment: Compound was tested for oral salidiuretic activity (control/drug treatment value) in rats expressed as urinary output. at a dose of 32 mg/kg; 7.67/10; assay type: functional, Urine
Rattus norvegicus [13] = experiment: Compound was tested for oral salidiuretic activity (control/drug treatment value) in rats expressed as urinary output. at a dose of 64 mg/kg; 7.67/12.42; assay type: functional, Urine
Rattus norvegicus [14] = experiment: Compound was tested for oral salidiuretic activity (control/drug treatment value) in rats expressed in Na+, mequiv/6 hr at a dose of 128 mg/kg; 0.181/0.607; assay type: functional, Urine
Rattus norvegicus [15] = experiment: Compound was tested for oral salidiuretic activity (control/drug treatment value) in rats expressed in Na+, mequiv/6 hr at a dose of 32 mg/kg; 0.181/0.230; assay type: functional, Urine
Rattus norvegicus [16] = experiment: Compound was tested for oral salidiuretic activity (control/drug treatment value) in rats expressed as urinary output. at a dose of 128 mg/kg; 7.67/14.18; assay type: functional, Urine
Rattus norvegicus [17] = experiment: Compound was tested for oral salidiuretic activity (control/drug treatment value) in rats expressed in Na+, mequiv/6 hr at a dose of 16 mg/kg; 0.181/0.242; assay type: functional, Urine
Rattus norvegicus [18] = experiment: Compound was tested for oral salidiuretic activity (control/drug treatment value) in rats expressed in Na+, mequiv/6 hr at a dose of 64 mg/kg; 0.181/0.512; assay type: functional, Urine
Rattus norvegicus [19] = experiment: Compound was tested for oral salidiuretic activity (control/drug treatment value) in rats expressed in Na+, mequiv/6 hr at a dose of 128 mg/kg; 0.112/0.407; assay type: functional, Urine
Rattus norvegicus [20] = experiment: Compound was tested for oral salidiuretic activity (control/drug treatment value) in rats expressed as urinary output. at a dose of 128 mg/kg; 7.25/9.43; assay type: functional, Urine
Rattus norvegicus [21] = experiment: Compound was tested for oral salidiuretic activity (control/drug treatment value) in rats expressed in Na+, mequiv/6 hr at a dose of 128 mg/kg; 0.306/0.786; assay type: functional, Urine
Rattus norvegicus [22] = experiment: Compound was tested for oral salidiuretic activity (control/drug treatment value) in rats expressed as urinary output. at a dose of 128 mg/kg; 6.83/10.83; assay type: functional, Urine
Rattus norvegicus [23] = experiment: Compound was tested for oral salidiuretic activity (control/drug treatment value) in rats expressed in Na+, mequiv/6 hr at a dose of 32 mg/kg; 0.140/0.416; assay type: functional, Urine
Rattus norvegicus [24] = experiment: Compound was tested for oral salidiuretic activity (control/drug treatment value) in rats expressed as urinary output. at a dose of 32 mg/kg; 10.33/10.75; assay type: functional, Urine
Rattus norvegicus [25] = experiment: Compound was tested for oral salidiuretic activity (control/drug treatment value) in rats expressed as urinary output. at a dose of 64 mg/kg; 10.33/12.42
Rattus norvegicus [26] = experiment: Compound was tested for oral salidiuretic activity (control/drug treatment value) in rats expressed in Na+, mequiv/6 hr at a dose of 64 mg/kg; 0.140/0.606
Rattus norvegicus [27] = experiment: Compound was tested for oral salidiuretic activity (control/drug treatment value) in rats expressed in Na+, mequiv/6 hr at a dose of 128 mg/kg; 0.229/0.172; assay type: functional, Urine
Rattus norvegicus [28] = experiment: Compound was tested for oral salidiuretic activity (control/drug treatment value) in rats expressed as urinary output. at a dose of 128 mg/kg; 4.88/5.32; assay type: functional, Urine
Rattus norvegicus [29] = experiment: Compound was tested for oral salidiuretic activity (control/drug treatment value) in rats expressed as urinary output. at a dose of 14 mg/kg; 7.17/9.08; assay type: functional, Urine
Rattus norvegicus [30] = experiment: Compound was tested for oral salidiuretic activity (control/drug treatment value) in rats expressed as urinary output. at a dose of 27 mg/kg; 7.17/9.75; assay type: functional, Urine
Rattus norvegicus [31] = experiment: Compound was tested for oral salidiuretic activity (control/drug treatment value) in rats expressed as urinary output. at a dose of 55 mg/kg; 7.17/9.58; assay type: functional, Urine
Rattus norvegicus [32] = experiment: Compound was tested for oral salidiuretic activity (control/drug treatment value) in rats expressed in Na+, mequiv/6 hr at a dose of 110 mg/kg; 0.261/0.735; assay type: functional, Urine
Rattus norvegicus [33] = experiment: Compound was tested for oral salidiuretic activity (control/drug treatment value) in rats expressed as urinary output. at a dose of 110 mg/kg; 7.17/11.20; assay type: functional, Urine
Rattus norvegicus [34] = experiment: Compound was tested for oral salidiuretic activity (control/drug treatment value) in rats expressed in Na+, mequiv/6 hr at a dose of 14 mg/kg; 0.261/0.695; assay type: functional, Urine
Rattus norvegicus [35] = experiment: Compound was tested for oral salidiuretic activity (control/drug treatment value) in rats expressed in Na+, mequiv/6 hr at a dose of 27 mg/kg; 0.261/0.742; assay type: functional, Urine
Rattus norvegicus [36] = experiment: Compound was tested for oral salidiuretic activity (control/drug treatment value) in rats expressed in Na+, mequiv/6 hr at a dose of 110 mg/kg; 0.261/0.735

Sequence of Beta-1 adrenergic receptor (Homo sapiens) (P08588 whole entry, looked up): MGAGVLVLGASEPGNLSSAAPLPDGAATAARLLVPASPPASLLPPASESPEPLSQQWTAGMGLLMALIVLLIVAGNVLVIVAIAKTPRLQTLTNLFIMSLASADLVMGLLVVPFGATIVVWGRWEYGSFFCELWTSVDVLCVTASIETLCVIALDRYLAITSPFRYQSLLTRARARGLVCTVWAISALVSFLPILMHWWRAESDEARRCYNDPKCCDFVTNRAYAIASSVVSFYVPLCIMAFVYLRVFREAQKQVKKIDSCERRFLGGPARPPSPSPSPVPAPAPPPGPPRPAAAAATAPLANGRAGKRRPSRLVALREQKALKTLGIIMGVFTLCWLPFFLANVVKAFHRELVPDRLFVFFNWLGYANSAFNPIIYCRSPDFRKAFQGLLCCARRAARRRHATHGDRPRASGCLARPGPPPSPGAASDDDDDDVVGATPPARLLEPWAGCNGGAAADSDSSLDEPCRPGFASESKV
Sequence of Beta-2 adrenergic receptor (Canis lupus familiaris) (P54833 whole entry, looked up): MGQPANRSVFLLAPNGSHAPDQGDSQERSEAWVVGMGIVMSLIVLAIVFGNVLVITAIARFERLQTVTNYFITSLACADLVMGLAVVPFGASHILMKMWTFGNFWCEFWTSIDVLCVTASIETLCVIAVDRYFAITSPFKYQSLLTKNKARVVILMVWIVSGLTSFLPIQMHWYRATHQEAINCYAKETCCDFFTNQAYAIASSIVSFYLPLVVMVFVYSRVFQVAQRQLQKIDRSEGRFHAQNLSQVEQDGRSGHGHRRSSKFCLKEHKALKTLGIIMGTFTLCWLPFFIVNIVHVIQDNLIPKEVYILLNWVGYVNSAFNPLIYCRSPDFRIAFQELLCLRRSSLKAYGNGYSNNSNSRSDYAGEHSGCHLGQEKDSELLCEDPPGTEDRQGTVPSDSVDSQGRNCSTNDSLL

## CC(C)NCC(O)COc1cccc2ccccc12 (stereo not drawn) [PROPRANOLOL]
Rattus norvegicus [1]
  Activity: 9.05 mL
Rattus norvegicus [2]
  Activity: 9.05 mL
Rattus norvegicus [3]
  Activity: 0.216
Rattus norvegicus [4]
  Activity: 0.216
Rattus norvegicus [5]
  Activity: 0.216
Rattus norvegicus [6]
  Activity: 0.216

## CC(C)NCC(O)COc1ccc(NC(=O)c2cccs2)cc1 (stereo not drawn)
Rattus norvegicus [7]
  treated urinary output: 12.8 mL
[8]
  ID50: 0.045 mg/kg
[9]
  ID50: > 1 mg/kg
Rattus norvegicus [10]
  Activity: 0.114

## CC(C)(C)NCC(O)COc1ccc(NC(=O)c2cccs2)cc1 (stereo not drawn)
Rattus norvegicus [11]
  Activity: 7.67 mL
Rattus norvegicus [12]
  treated urinary output: 10 mL
Rattus norvegicus [13]
  Activity: 7.67 mL
Rattus norvegicus [14]
  Activity: 0.181
Rattus norvegicus [15]
  Activity: 0.181
Rattus norvegicus [16]
  Activity: 7.67 mL
Rattus norvegicus [17]
  Activity: 0.181
Rattus norvegicus [18]
  Activity: 0.181
[8]
  ID50: 0.075 mg/kg
[9]
  ID50: > 1 mg/kg

## CC(C)NCC(O)COc1ccc(NC(=O)c2cccs2)cc1C(=O)OC(C)C (stereo not drawn)
Rattus norvegicus [19]
  Activity: 0.112
Rattus norvegicus [20]
  Activity: 7.25 mL
[8]
  ID50: 0.17 mg/kg
[9]
  ID50: 0.25 mg/kg

## COC(=O)c1cc(NC(=O)c2cccs2)ccc1OCC(O)CNC(C)(C)C (stereo not drawn)
Rattus norvegicus [21]
  Activity: 0.306
Rattus norvegicus [22]
  Activity: 6.83 mL
[8]
  ID50: 0.042 mg/kg
[9]
  ID50: > 1 mg/kg

## Cc1cc(NC(=O)c2cccs2)ccc1OCC(O)CNC(C)(C)C (stereo not drawn)
Rattus norvegicus [23]
  Activity: 0.14
Rattus norvegicus [24]
  Activity: 10.33 mL
[8]
  ID50: 0.03 mg/kg
[9]
  ID50: > 1 mg/kg

## Cc1cc(NC(=O)c2cccs2)ccc1OCC(O)CNC(C)C (stereo not drawn)
[8]
  ID50: 0.02 mg/kg
[9]
  ID50: > 1 mg/kg
Rattus norvegicus [25]
  Activity: 10.33 mL
Rattus norvegicus [26]
  Activity: 0.14

## CC(C)(C)NCC(O)COc1ccc(NC(=O)c2cccs2)cc1C(=O)O (stereo not drawn)
Rattus norvegicus [27]
  Activity: 0.229
Rattus norvegicus [28]
  treated urinary output: 5.32 mL
[8]
  ID50: > 8 mg/kg
[9]
  ID50: > 8 mg/kg

## NS(=O)(=O)c1cc2c(cc1Cl)NCNS2(=O)=O [HYDROCHLOROTHIAZIDE]
Rattus norvegicus [29]
  Activity: 7.17 mL
Rattus norvegicus [30]
  Activity: 7.17 mL
Rattus norvegicus [31]
  treated urinary output: 9.58 mL
Rattus norvegicus [32]
  Activity: 0.261
Rattus norvegicus [33]
  treated urinary output: 11.2 mL
Rattus norvegicus [34]
  Activity: 0.261
Rattus norvegicus [35]
  Activity: 0.261
Rattus norvegicus [36]
  Activity: 0.261

— ChEMBL document CHEMBL1123539, “[p-[(Thienylcarbonyl)amino]phenoxy]propanolamines derivatives as diuretic and beta-adrenergic receptor blocking agents” (1986)
